Test systems include OVCAR-5; LOX IMVI; MOLT-4; IGROV-1; NCI-H522; M14; OVCAR-3; UACC-62; HOP-62; NCI-H23; RXF 393; SK-MEL-28; SF-295; SW-620; UO-31; COLO 205; 786-0; CAKI-1; CCRF-CEM; SNB-75.
Common to all, as to test: NCI-60 cell line screen, 48 h

The source of these data is ChEMBL document CHEMBL1201862, “PubChem BioAssay data set” (2004).

Each structure is given as a SMILES string.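 These data come from cells grown in 96-well plates and exposed to compound for 48 hours at five concentrations. At the GI50, growth is halved.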 The source made the active and inactive calls. Rule as the data show it: active = GI50 up to about 1.1 µM and inactive = higher.

Turning to `COc1cccc2c1-c1c(OC)cccc1SS2`, the GI50 is 17.8 µM (inactive) with OVCAR-5; 10.7 µM (inactive) in the assay with LOX IMVI; 13.4 µM (inactive) with MOLT-4; 17.4 µM (inactive) in the assay on IGROV-1; 19.7 µM (inactive) in the assay on NCI-H522; 27 µM (inactive) with M14. Further, the GI50 is 16.3 µM (inactive) with OVCAR-3; 20.1 µM (inactive) with UACC-62; 47.2 µM (inactive) in the assay with HOP-62; 18.6 µM (inactive) with NCI-H23; 17.5 µM (inactive) with RXF 393; 16.8 µM (inactive) in the assay on SK-MEL-28. Moreover, the GI50 in the assay on SF-295 was 19.9 µM (inactive); in the assay on SW-620 it was 20.4 µM (inactive); in the assay on UO-31, 22.8 µM (inactive); with COLO 205, 20 µM (inactive); in the assay with 786-0 it was 18.2 µM (inactive); with CAKI-1, 25.2 µM (inactive).
For the compound `O=C1C=C(c2ccccc2)NC1(c1ccccc1)c1cc(-c2ccccc2)[nH]c1-c1ccccc1` (stereo not drawn), the GI50 in the assay with MOLT-4, in the assay on IGROV-1, in the assay with M14, with OVCAR-3, in the assay on UACC-62 and in the assay on CCRF-CEM was > 100 µM (inactive) each time. Further, the GI50 with HOP-62 is 2.21 µM (inactive); in the assay with NCI-H23, > 100 µM (inactive); in the assay on RXF 393, 0.182 µM (active); in the assay on SK-MEL-28, > 100 µM (inactive); with SF-295, > 100 µM (inactive); in the assay on SW-620, > 100 µM (inactive). Besides, the GI50 in the assay with UO-31, with COLO 205, in the assay on 786-0, with SNB-75 and with CAKI-1 was > 100 µM (inactive) in each case.
On to `COc1cc2c(cc1O)C1Cc3ccc(OC)c(O)c3C(C2)N1C` (stereo not drawn), for which the GI50 was > 100 µM (inactive) with OVCAR-5; > 100 µM (inactive) in the assay with LOX IMVI; 58.1 µM (inactive) in the assay on MOLT-4; > 100 µM (inactive) in the assay on IGROV-1; > 100 µM (inactive) in the assay on NCI-H522; > 100 µM (inactive) in the assay with M14. Besides, the GI50 with OVCAR-3 was > 100 µM (inactive); in the assay on UACC-62 it was > 100 µM (inactive); in the assay on CCRF-CEM, > 100 µM (inactive); in the assay with HOP-62 it was 92.9 µM (inactive); with NCI-H23 it was > 100 µM (inactive); in the assay with RXF 393, > 100 µM (inactive). Moreover, the GI50 in the assay on SK-MEL-28, in the assay on SF-295, with SW-620, with UO-31, in the assay on COLO 205 and in the assay with 786-0 was > 100 µM (inactive) in each case. Besides, the GI50 with CAKI-1 was > 100 µM (inactive).
On to `Cn1c(=O)c2c(ncn2Cc2ccc(O)c([N+](=O)[O-])c2)n(C)c1=O`, for which the GI50 in the assay with OVCAR-5, in the assay on LOX IMVI, with MOLT-4, in the assay with IGROV-1, in the assay with NCI-H522 and in the assay on M14 was > 100 µM (inactive) in each case. Besides, the GI50 in the assay on OVCAR-3, with UACC-62, with CCRF-CEM, in the assay on HOP-62, in the assay on NCI-H23 and in the assay with SK-MEL-28 was > 100 µM (inactive) each time. Further, the GI50 in the assay on SF-295, in the assay with SW-620, in the assay with UO-31, with COLO 205, in the assay with 786-0 and with SNB-75 was > 100 µM (inactive) each time. In the assay with CAKI-1, the GI50 is > 100 µM (inactive).
With `COc1ccc(/C=N/N=C(\N)NO)c(OC)c1OC`, the GI50 was 23.4 µM (inactive) in the assay on OVCAR-5; 23.4 µM (inactive) in the assay on LOX IMVI; 42.3 µM (inactive) in the assay on MOLT-4; 36.6 µM (inactive) in the assay on IGROV-1; 36.6 µM (inactive) in the assay on NCI-H522; 44.4 µM (inactive) in the assay with M14. Further, the GI50 was 16.4 µM (inactive) in the assay on OVCAR-3; 20.6 µM (inactive) in the assay with UACC-62; 20 µM (inactive) with CCRF-CEM; 32.7 µM (inactive) in the assay on HOP-62; 31.3 µM (inactive) in the assay with NCI-H23; 30.1 µM (inactive) in the assay on RXF 393. Moreover, the GI50 in the assay on SK-MEL-28 was > 100 µM (inactive); with SF-295, 31.6 µM (inactive); with SW-620, 46.2 µM (inactive); with UO-31, 20.8 µM (inactive); in the assay on COLO 205, 19.1 µM (inactive); with 786-0, 18.5 µM (inactive). The GI50 in the assay with CAKI-1 was 54.3 µM (inactive).
Turning to `O=C(OCc1ccccc1)c1ccccc1-c1c2ccc(=O)cc-2oc2cc(OCc3ccccc3)ccc12`, the GI50 was 19.8 µM (inactive) with OVCAR-5; 6.43 µM (inactive) with LOX IMVI; 1.95 µM (inactive) in the assay on MOLT-4; 11 µM (inactive) in the assay with IGROV-1; 15.8 µM (inactive) in the assay on M14; 17.6 µM (inactive) with OVCAR-3. For the same compound, the GI50 with UACC-62 was 10.2 µM (inactive); in the assay with CCRF-CEM, 3.61 µM (inactive); with NCI-H23, 10.4 µM (inactive); in the assay with RXF 393, 14.4 µM (inactive); in the assay on SK-MEL-28, 21.4 µM (inactive); in the assay on SF-295 it was 17.2 µM (inactive). The GI50 with SW-620 is 12.1 µM (inactive); in the assay on UO-31 it was 6.12 µM (inactive); in the assay with COLO 205, 18.6 µM (inactive); in the assay on 786-0, 15.1 µM (inactive); with CAKI-1, 5.22 µM (inactive).
On to `CC(C)N(C(=O)C12C3C4C1C1C2C3C41C(=O)N(C(C)C)C(C)C)C(C)C` (stereo not drawn), for which the GI50 in the assay with OVCAR-5, in the assay with LOX IMVI, in the assay on MOLT-4, in the assay with IGROV-1, in the assay with NCI-H522 and in the assay on M14 was > 50 µM (inactive) each time. The GI50 with OVCAR-3, in the assay with UACC-62, in the assay with CCRF-CEM, in the assay with HOP-62, in the assay with NCI-H23 and with SK-MEL-28 was > 50 µM (inactive) throughout. Besides, the GI50 in the assay on SF-295, in the assay with SW-620, in the assay on UO-31, with COLO 205, with 786-0 and in the assay with SNB-75 was > 50 µM (inactive) each time. The GI50 with CAKI-1 was > 50 µM (inactive).
Consider `CC(=O)NC(Cc1ccc(OP(=O)(OCc2ccc([N+](=O)[O-])o2)N(C)CCCCCl)cc1)C(=O)NC(C)c1ccc(OCC2CCCCC2)c(C(N)=O)c1` (stereo not drawn), for which the GI50 in the assay on OVCAR-5 was 7.35 µM (inactive); with LOX IMVI, 1.97 µM (inactive); with MOLT-4, 3.53 µM (inactive); with IGROV-1, 2.7 µM (inactive); in the assay with NCI-H522, 3.73 µM (inactive); with M14 it was 2.22 µM (inactive). The GI50 is 2.27 µM (inactive) in the assay with OVCAR-3; 2.31 µM (inactive) with UACC-62; 1.33 µM (inactive) in the assay on CCRF-CEM; 9.66 µM (inactive) in the assay on HOP-62; 2.21 µM (inactive) in the assay with NCI-H23; 2.02 µM (inactive) in the assay with RXF 393. For the same compound, the GI50 in the assay on SK-MEL-28 is 2.12 µM (inactive); in the assay on SF-295, 4.74 µM (inactive); with SW-620, 4.11 µM (inactive); in the assay with UO-31, 17.3 µM (inactive); in the assay with COLO 205 it was 1.87 µM (inactive); in the assay with 786-0 it was 3.37 µM (inactive). Also, the GI50 with CAKI-1 was 21.3 µM (inactive).
As to `Oc1nnc2c(-c3ccccc3)n[nH]c2n1`, the GI50 was > 100 µM (inactive) in the assay on OVCAR-5; > 100 µM (inactive) in the assay on LOX IMVI; > 100 µM (inactive) in the assay on MOLT-4; 94.4 µM (inactive) in the assay with IGROV-1; > 100 µM (inactive) in the assay with NCI-H522; > 100 µM (inactive) in the assay with M14. Besides, the GI50 in the assay with OVCAR-3, in the assay on UACC-62, in the assay with CCRF-CEM, in the assay on HOP-62, with NCI-H23 and in the assay with RXF 393 was > 100 µM (inactive) each time. The GI50 in the assay on SK-MEL-28 was > 100 µM (inactive); in the assay on SF-295 it was > 100 µM (inactive); in the assay on SW-620 it was > 100 µM (inactive); with UO-31, > 100 µM (inactive); with COLO 205, > 100 µM (inactive); in the assay on 786-0, 15.5 µM (inactive). The GI50 in the assay with CAKI-1 is 45.5 µM (inactive).
On to `O=C(O)c1ccc(Nc2nc3nn(Cc4ccccc4)cc3c(=O)s2)cc1`, for which the GI50 in the assay on OVCAR-5, with LOX IMVI, in the assay on MOLT-4, in the assay on IGROV-1, in the assay with NCI-H522 and with M14 was > 100 µM (inactive) throughout. Besides, the GI50 in the assay with OVCAR-3, with CCRF-CEM, in the assay on HOP-62, in the assay on NCI-H23, in the assay on RXF 393 and with SK-MEL-28 was > 100 µM (inactive) in each case. Besides, the GI50 with SF-295, in the assay on SW-620, in the assay with UO-31, in the assay on COLO 205 and with 786-0 was > 100 µM (inactive) each time.
As to `Cc1ccc(C2OC(COCc3ccc(Cl)cc3)C(OCc3ccc(Cl)cc3)C2O)cc1` (stereo not drawn), the GI50 in the assay with OVCAR-5 is > 100 µM (inactive); in the assay with MOLT-4, 2.06 µM (inactive); in the assay on IGROV-1 it was 8.89 µM (inactive); in the assay on OVCAR-3, 10.7 µM (inactive); in the assay with UACC-62, 4.42 µM (inactive); with NCI-H23, 6.44 µM (inactive). Also, the GI50 in the assay on RXF 393 was 3.19 µM (inactive); with SK-MEL-28, 31.1 µM (inactive); in the assay with SF-295, 12.3 µM (inactive); in the assay on SW-620, 14.3 µM (inactive); in the assay on UO-31, 6.76 µM (inactive); in the assay with COLO 205 it was 22.8 µM (inactive). The results for the GI50 with 786-0, in the assay on SNB-75 and in the assay with CAKI-1 were > 10 µM (inactive), 4.37 µM (inactive) and 11.4 µM (inactive), respectively.
